Assay [1] concerns STAT5. The experiment in a line: Immunoblotting (Western blot) analysis of STAT5 degradation efficiency of degraders in treated cells. It counts as cell-based. The method, boiled down: (§1)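 Read-out: fluorescent IRDye 680RD/800CW secondaries imaged on an infrared scanner, with band intensities quantified by densitometry and GAPDH serving as loading control. Samples were RIPA lysates, BCA-normalised, from ~1 million treated cells.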
On the technique in general: In western blotting, separated proteins are transferred to a membrane and probed.

In assay [2] the target is T1, STAT6 (Homo sapiens, UniProt P42226).
T1 construct: endogenous in cells; host or cells: MOLM-16, KU-812, SKNO1, MB231, L1236
T1 sequence (P42226 1-847): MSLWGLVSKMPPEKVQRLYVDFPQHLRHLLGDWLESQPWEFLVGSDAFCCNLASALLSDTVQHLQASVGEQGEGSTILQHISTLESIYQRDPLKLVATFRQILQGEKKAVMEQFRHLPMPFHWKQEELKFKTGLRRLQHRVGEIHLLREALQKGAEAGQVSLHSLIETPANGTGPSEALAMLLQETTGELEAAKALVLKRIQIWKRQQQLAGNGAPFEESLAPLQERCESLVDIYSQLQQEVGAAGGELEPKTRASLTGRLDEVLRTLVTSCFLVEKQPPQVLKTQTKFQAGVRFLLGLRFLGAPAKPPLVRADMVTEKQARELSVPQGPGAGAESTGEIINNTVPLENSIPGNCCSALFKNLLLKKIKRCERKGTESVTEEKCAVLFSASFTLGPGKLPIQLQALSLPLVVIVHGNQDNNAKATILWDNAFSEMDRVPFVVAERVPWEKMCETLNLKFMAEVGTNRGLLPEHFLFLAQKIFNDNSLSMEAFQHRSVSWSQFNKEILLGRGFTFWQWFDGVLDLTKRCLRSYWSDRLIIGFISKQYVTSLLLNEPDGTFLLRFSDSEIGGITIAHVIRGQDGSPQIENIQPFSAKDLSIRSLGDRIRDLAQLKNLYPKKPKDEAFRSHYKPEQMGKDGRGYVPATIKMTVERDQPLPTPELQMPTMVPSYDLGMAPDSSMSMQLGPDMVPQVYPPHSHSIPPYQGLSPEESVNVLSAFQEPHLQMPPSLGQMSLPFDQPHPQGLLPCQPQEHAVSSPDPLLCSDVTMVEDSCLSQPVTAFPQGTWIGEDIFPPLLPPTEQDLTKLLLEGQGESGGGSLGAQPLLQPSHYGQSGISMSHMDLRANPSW
The experiment in a line: Immunoblotting (Western blot) analysis of STAT6 degradation efficiency of degraders in treated cells. It counts as cell-based. The method, boiled down:
as §1

[3] abbreviates: KU-812 cells, read-out: DC50 S5 KU-812.
Where [4] appears, read: MOLM-16 cells, class symbols, read-out: DC50 S5 MOLM-16.
The mark [5] stands for this setting: MB231 cells, read-out: DC50 S6 MB231.
Where [6] appears, read: MOLM-16 cells, class symbols, read-out: DC50 S6 MOLM-16.
Where [7] appears, read: KU-812 cells, read-out: DC50 S6 KU-812.
Where [8] appears, read: MOLM-16 cells, numeric bound, read-out: DC50 S5 MOLM-16.
[9] abbreviates: MOLM-16 cells, numeric bound, read-out: DC50 S6 MOLM-16.
Where [10] appears, read: SKNO1 cells, read-out: DC50 S5 SKNO1.

In general, DC50 refers to the concentration giving 50% degradation.

SMILES strings stand for the structures. Where two headings read alike, the source gives them in different places.

In the case of `CC(C)(C)[C@H](NC(=O)c1cc2cc(C(F)(F)P(=O)(O)O)ccc2s1)C(=O)N1CCC[C@H]1C(=O)N(CCC(=O)NCCCCCCCCC#Cc1cccc2c1CN(C1CCC(=O)NC1=O)C2=O)c1ccc(Br)cc1` (stereo partly drawn) [Compound 403, ((2-(((2S)-1-((2S)-2-((4-bromophenyl)(3-((10-(2-(2,6-dioxopiperidin-3-yl)-1-oxoisoindolin-4-yl)dec-9-yn-1-yl)amino)-3-oxopropyl)carbamoyl)pyrrolidin-1-yl)-3,3-dimethyl-1-oxobutan-2-yl)carbamoyl)benzo[b]thiophen-5-yl)difluoromethyl)phosphonic acid], the DC50 in assay [1] (setting [3]) is above 10000 nM; in assay [1] (setting [4]), 1000 to 10000 nM; in assay [2] (setting [5]), above 10 µM; in assay [2] (setting [6]) it was above 10 µM.

In the case of `CC(C)(C)[C@H](NC(=O)c1cc2cc(C(F)(F)P(=O)(O)O)ccc2s1)C(=O)N1CCC[C@H]1C(=O)N(CCC(=O)NCCCCC#Cc1cccc2c1CN(C1CCC(=O)NC1=O)C2=O)c1ccc(Br)cc1` (stereo partly drawn) [Compound 686, ((2-(((2S)-1-((2S)-2-((4-bromophenyl)(3-((6-(2-(2,6-dioxopiperidin-3-yl)-1-oxoisoindolin-4-yl)hex-5-yn-1-yl)amino)-3-oxopropyl)carbamoyl)pyrrolidin-1-yl)-3,3-dimethyl-1-oxobutan-2-yl)carbamoyl)benzo[b]thiophen-5-yl)difluoromethyl)phosphonic acid], the DC50 in assay [1] (setting [3]) was 100 to 1000 nM; in assay [2] (setting [7]), above 10 µM.

For the molecule `CC(C)(C)[C@H](NC(=O)c1cc2cc(C(F)(F)P(=O)(O)O)ccc2s1)C(=O)N1CCC[C@H]1C(=O)N1C[C@@H](Oc2ccccc2)C[C@H]1C(=O)NCCCC#Cc1cccc2c1CN(C1CCC(=O)NC1=O)C2=O` (stereo partly drawn) [Compound 658, ((2-(((2S)-1-((2S)-2-((2S,4S)-2-((5-(2-(2,6-dioxopiperidin-3-yl)-1-oxoisoindolin-4-yl)pent-4-yn-1-yl)carbamoyl)-4-phenoxypyrrolidine-1-carbonyl)pyrrolidin-1-yl)-3,3-dimethyl-1-oxobutan-2-yl)carbamoyl)benzo[b]thiophen-5-yl)difluoromethyl)phosphonic acid], the figures for the DC50 in assay [1] (setting [8]) and in assay [2] (setting [9]) were above 300 nM and above 0.3 µM, respectively.

For the molecule `CN(C(=O)[C@@H]1C[C@@H](OCC(=O)NCCCCCC#Cc2cccc3c2CN(C2CCC(=O)NC2=O)C3=O)CN1C(=O)[C@@H](NC(=O)c1cc2cc(C(F)(F)P(=O)(O)O)ccc2s1)C(C)(C)C)c1ccc(Br)cc1` (stereo partly drawn) [Compound 412, ((2-(((2S)-1-((2S,4R)-2-((4-bromophenyl)(methyl)carbamoyl)-4-(2-((7-(2-(2,6-dioxopiperidin-3-yl)-1-oxoisoindolin-4-yl)hept-6-yn-1-yl)amino)-2-oxoethoxy)pyrrolidin-1-yl)-3,3-dimethyl-1-oxobutan-2-yl)carbamoyl)benzo[b]thiophen-5-yl)difluoromethyl)phosphonic acid], the DC50 in assay [1] (setting [10]) was above 10000 nM; in assay [2] (L1236 cells, read-out: DC50 S6 L1236), above 10 µM; in assay [2] (setting [5]), above 10 µM.

Regarding `CC(C)(C)[C@H](NC(=O)c1cc2cc(C(F)(F)P(=O)(O)O)ccc2s1)C(=O)N1CCC[C@H]1C(=O)N1C[C@@H](Oc2ccc3ccccc3c2)C[C@H]1C(=O)NCCCC#Cc1cccc2c1CN(C1CCC(=O)NC1=O)C2=O` (stereo partly drawn) [Compound 659, ((2-(((2S)-1-((2S)-2-((2S,4S)-2-((5-(2-(2,6-dioxopiperidin-3-yl)-1-oxoisoindolin-4-yl)pent-4-yn-1-yl)carbamoyl)-4-(naphthalen-2-yloxy)pyrrolidine-1-carbonyl)pyrrolidin-1-yl)-3,3-dimethyl-1-oxobutan-2-yl)carbamoyl)benzo[b]thiophen-5-yl)difluoromethyl)phosphonic acid], the DC50 in assay [1] (setting [8]) is above 300 nM; in assay [2] (setting [9]), above 0.3 µM.

For `CC(C)(C)[C@H](NC(=O)c1cc2cc(C(F)(F)P(=O)(O)O)ccc2s1)C(=O)N1CCC[C@H]1C(=O)N(CCC(=O)NCCCC#Cc1cccc2c1CN(C1CCC(=O)NC1=O)C2=O)c1ccc2ccccc2c1` (stereo partly drawn) [Compound 656, ((2-(((2S)-1-((2S)-2-((3-((5-(2-(2,6-dioxopiperidin-3-yl)-1-oxoisoindolin-4-yl)pent-4-yn-1-yl)amino)-3-oxopropyl)(naphthalen-2-yl)carbamoyl)pyrrolidin-1-yl)-3,3-dimethyl-1-oxobutan-2-yl)carbamoyl)benzo[b]thiophen-5-yl)difluoromethyl)phosphonic acid], the DC50 in assay [1] (setting [3]) is 100 to 1000 nM; in assay [1] (setting [4]), below 100 nM; in assay [1] (setting [10]), 100 to 1000 nM; in assay [2] (setting [9]) it was above 0.3 µM.

As for `CC(C)(C)[C@H](NC(=O)c1cc2cc(C(F)(F)P(=O)(O)O)ccc2s1)C(=O)N1CCC[C@H]1C(=O)N(CCC(=O)NCCCC#Cc1cccc2c1CN(C1CCC(=O)NC1=O)C2=O)c1ccc(Br)cc1` (stereo partly drawn) [Compound 406, ((2-(((2S)-1-((2S)-2-((4-bromophenyl)(3-((5-(2-(2,6-dioxopiperidin-3-yl)-1-oxoisoindolin-4-yl)pent-4-yn-1-yl)amino)-3-oxopropyl)carbamoyl)pyrrolidin-1-yl)-3,3-dimethyl-1-oxobutan-2-yl)carbamoyl)benzo[b]thiophen-5-yl)difluoromethyl)phosphonic acid], the DC50 in assay [1] (setting [3]) was 100 to 1000 nM; in assay [1] (setting [4]), below 100 nM; in assay [1] (setting [10]), 100 to 1000 nM; in assay [2] (setting [7]), above 10 µM; in assay [2] (setting [5]), above 10 µM; in assay [2] (setting [6]), above 10 µM. Also, the DC50 in assay [2] (SKNO1 cells, read-out: DC50 S6 SKNO1) is above 10 µM.

For `Cc1ncsc1-c1ccc([C@H](CC(=O)NCCCCCCCCCC(=O)N[C@@H]2C[C@@H](C(=O)Nc3ncc(-c4ccccc4)s3)N(C(=O)[C@@H](NC(=O)c3cc4cc(C(F)(F)P(=O)(O)O)ccc4s3)C(C)(C)C)C2)NC(=O)[C@@H]2C[C@@H](O)CN2C(=O)[C@@H](NC(=O)C2(F)CC2)C(C)(C)C)cc1` [Compound 579, (difluoro(2-(((S)-1-((2S,4R)-4-(10-((S)-3-((2S,4R)-1-((S)-2-(1-fluorocyclopropane-1-carboxamido)-3,3-dimethylbutanoyl)-4-hydroxypyrrolidine-2-carboxamido)-3-(4-(4-methylthiazol-5-yl)phenyl)propanamido)decanamido)-2-((5-phenylthiazol-2-yl)carbamoyl)pyrrolidin-1-yl)-3,3-dimethyl-1-oxobutan-2-yl)carbamoyl)benzo[b]thiophen-5-yl)methyl)phosphonic acid], the values for the 50% degradation concentration (DC50) in assay [1] (setting [8]) and in assay [2] (setting [9]) were above 300 nM and above 0.3 µM, respectively.

With `CC(C)(C)[C@H](NC(=O)c1cc2cc(C(F)(F)P(=O)(O)O)ccc2s1)C(=O)N1CCC[C@H]1C(=O)N(CCC(=O)NCCCCCC#Cc1cccc2c1CN(C1CCC(=O)NC1=O)C2=O)c1ccc(Br)cc1` (stereo partly drawn) [Compound 405, ((2-(((2S)-1-((2S)-2-((4-bromophenyl)(3-((7-(2-(2,6-dioxopiperidin-3-yl)-1-oxoisoindolin-4-yl)hept-6-yn-1-yl)amino)-3-oxopropyl)carbamoyl)pyrrolidin-1-yl)-3,3-dimethyl-1-oxobutan-2-yl)carbamoyl)benzo[b]thiophen-5-yl)difluoromethyl)phosphonic acid], the half-maximal degradation concentration (DC50) in assay [1] (setting [3]) is 100 to 1000 nM; in assay [1] (setting [4]) it was 100 to 1000 nM; in assay [1] (setting [10]), 100 to 1000 nM; in assay [2] (setting [5]) it was above 10 µM; in assay [2] (setting [6]), above 10 µM.

In the case of `CN(CCCC#Cc1cccc2c1CN(C1CCC(=O)NC1=O)C2=O)C(=O)CCN(C(=O)[C@@H]1CCCN1C(=O)[C@@H](NC(=O)c1cc2cc(C(F)(F)P(=O)(O)OCOC(=O)C(C)(C)C)ccc2s1)C(C)(C)C)c1ccc(Br)cc1` (stereo partly drawn) [Compound 677, ((((2-(((2S)-1-((2S)-2-((4-bromophenyl)(3-((5-(2-(2,6-dioxopiperidin-3-yl)-1-oxoisoindolin-4-yl)pent-4-yn-1-yl)(methyl)amino)-3-oxopropyl)carbamoyl)pyrrolidin-1-yl)-3,3-dimethyl-1-oxobutan-2-yl)carbamoyl)benzo[b]thiophen-5-yl)difluoromethyl)(hydroxy)phosphoryl)oxy)methyl pivalate], the DC50 is below 100 nM in assay [1] (setting [4]) and above 0.3 µM in assay [2] (setting [9]).

These data come from patent US20230295197A1, “STAT5 and STAT6 Degraders and Uses Thereof” (REGENTS OF THE UNIVERSITY OF MICHICAN, priority 2022, published 2023).
